Source: patent US4701440A (Hoechst Aktiengesellschaft, priority 1983, dated 1987)

Tests used:
[1] = cited from earlier work
[2] = biological test, activity compared with unmodified insulin

Substance | biological activity compared with unmodified insulin [2] | other results
Porcine insulin-Arg^B31 OH |  | activity relative to unmodified porcine insulin ([1]; according to Chance, Excerpta Medica Int. Congress Series No. 231): 62%
insulin-Arg^B31 -Arg^B32 -OH | approximately the same level as that of unmodified insulin | 
insulin-Arg^B31 -OH | approximately the same level as that of unmodified insulin | 
proinsulin: proinsulin, insulin precursor containing the C-peptide |  | biological activity as fraction of that of insulin ([1]; intact proinsulin vs insulin): about 1/8
